{
  "source": "patent US20240033737A1",
  "about": "“DEVICES AND METHODS FOR CONTINUOUS DIELECTROPHORESIS CELL SORTING TO ISOLATE DIFFERENT POPULATIONS OF CELLS, AND APPLICATIONS THEREOF” (The Regents of the University of California, priority 2022, published 2024)",
  "format_in_all_cases": "cell-based",
  "key": {"D54 cells [1]": {"tested_on": "D54 cells", "experiment": "D54 viability by trypan blue staining immediately after incubation in media or DEP buffer", "settings": "for viability in the DEP buffer: 6-hour incubation", "protocol": "(A) Schematic describes experimental paradigm to test D54 viability after incubation in cell culture media or DEP buffer. Adherent D54 cells were dissociated then resuspended in media or DEP buffer and incubated on ice or at room temperature (RT). Cell viability was tested immediately after incubation by trypan blue. Equivalent numbers of cells were plated per condition and adherent cells observed after 1-2 days by phase contrast microscopy to assess cell recovery. (B) Cell viability after 6-hour incubation remained high for all conditions. Viability of D54 cells in DEP buffer may be slightly lower than that of cells in media. N=1. (C) Phase-contrast images of D54 cells stained with trypan blue after 6-hour incubation show high cell viability and increased clustering of cells incubated in media at RT. (D) Phase contrast images of adherent D54 cells one day after 6-hour incubation in media or DEP buffer. Cells incubated in media at RT show the best recovery, indicated by cell number and cell morphology. (E) Phase contrast images of adherent D54 cells one day after 0-6 hour incubation in media or DEP buffer. Cell recovery decreases with increasing incubation time in DEP buffer.\nFIG. 2A-D presents optimization of buffer conditions for DEP-based sorting of GBM cells. (A) Viability of D54 cells immediately after 6-hour RT incubation in regular growth media, DEP buffer, or DEP buffer supplemented with 5 μM ROCKi was measured by trypan blue staining. […] (B) After 6-hour incubation in media or buffers, D54 cells were plated in normal growth conditions and the number of cells measured after 2 days by XTT assay. […] Acutely isolated cells (Media control, 0 h) served as a control. (D) D54 cells were plated after 6-hour incubation in buffers and after 1 day were exposed to TMZ to assess TMZ resistance. TMZ IC50 is shown as fold change relative to media control, 0 h, and no difference in TMZ resistance was detected across samples. Error bars show SD. […]\n(A) Viability of D54 cells immediately after 6-hour incubation in regular growth media, DEP buffer, or DEP buffer supplemented with 1, 5, or 10 μM ROCKi was measured by trypan blue staining. […]\n(§1) DEP buffer (DB): 8.5% w/v sucrose, 0.3% w/v glucose, 0.725% RPMI. […] (B) Cells were plated after incubation and the confluency (% culture surface area covered by cells) of adherent cells measured 1 day later using ImageJ. […]\n(§2) Assessing the viability of D54 cells in a DEP buffer used for sorting mouse and human neural stem and progenitor cells. […] Further, the effect of temperature of the buffer (ice or room temperature) on cell viability was also evaluated. […] After the 6-hour buffer incubation, the cells were plated under normal growth conditions and assessed by phase contrast imaging 1-2 days later to assess cell survival and growth. […]"}, "D54 cells [2]": {"tested_on": "D54 cells", "experiment": "Recovery of adherent cells after buffer incubation and plating (phase contrast imaging, confluency by ImageJ)", "settings": "5 μM ROCKi in DEP buffer, 6 hours incubation, among DEP buffers, N=1", "protocol": "(A) Schematic describes experimental paradigm to test D54 viability after incubation in cell culture media or DEP buffer. Adherent D54 cells were dissociated then resuspended in media or DEP buffer and incubated on ice or at room temperature (RT). Cell viability was tested immediately after incubation by trypan blue. Equivalent numbers of cells were plated per condition and adherent cells observed after 1-2 days by phase contrast microscopy to assess cell recovery. (B) Cell viability after 6-hour incubation remained high for all conditions. Viability of D54 cells in DEP buffer may be slightly lower than that of cells in media. N=1. […]\nas §1, §2"}, "D54 cells [3]": {"tested_on": "D54 cells", "experiment": "XTT assay of cell numbers after plating and growth for 2 days", "settings": "5 μM ROCKi in DEP buffer vs DEP buffer without ROCKi, 6-hour incubation", "protocol": "(§3) FIG. 2A-D presents optimization of buffer conditions for DEP-based sorting of GBM cells. (A) Viability of D54 cells immediately after 6-hour RT incubation in regular growth media, DEP buffer, or DEP buffer supplemented with 5 μM ROCKi was measured by trypan blue staining. […] (B) After 6-hour incubation in media or buffers, D54 cells were plated in normal growth conditions and the number of cells measured after 2 days by XTT assay. […] Acutely isolated cells (Media control, 0 h) served as a control. (D) D54 cells were plated after 6-hour incubation in buffers and after 1 day were exposed to TMZ to assess TMZ resistance. TMZ IC50 is shown as fold change relative to media control, 0 h, and no difference in TMZ resistance was detected across samples. Error bars show SD. N≥3, one-way ANOVA, Tukey post hoc for multiple comparisons, *p<0.05, **p<0.01, ***p<0.001, ****p<0.0001.\nD54 cell viability studies conducted with a modified DEP buffer that included ROCKi. ROCK inhibitor (ROCKi) was included in the DEP buffer at concentrations ranging from 1-10 μM. […] Addition of 5 μM ROCKi to the DEP buffer improved D54 acute viability, as assessed by trypan blue staining, and led to greater than 90% viable cells (see FIG. 2A). An XTT assay was used to measure cell numbers after plating and growth for 2 days."}, "D54 cells [4]": {"tested_on": "D54 cells", "experiment": "TMZ resistance (TMZ IC50 fold change) of cells plated after buffer incubation", "settings": "5 μM ROCKi in DEP buffer; cells plated in normal growth medium without ROCKi", "protocol": "as §3\n(A) Viability of D54 cells immediately after 6-hour incubation in regular growth media, DEP buffer, or DEP buffer supplemented with 1, 5, or 10 μM ROCKi was measured by trypan blue staining. Acutely isolated cells (Media control, 0 h) served as a control. […] (C) There was no significant difference in the diameters of D54 cells in any of the conditions. (D) There was no significant difference in TMZ resistance as measured by fold change in IC50 relative to acutely isolated cells (Media control, 0 h). Error bars show SD. […]"}},
  "data": [
    {"smiles": "C[C@@H](N)[C@H]1CC[C@H](C(=O)Nc2ccncc2)CC1", "note": "[ROCKi, Y27632]", "values": [
      {"measurement": "viability in the DEP buffer", "setting": "D54 cells [1]; 1 μM ROCKi in DEP buffer", "value": "improved viability"},
      {"measurement": "viable cells (acute viability, trypan blue)", "setting": "D54 cells [1]; 5 μM ROCKi in DEP buffer, 6-hour RT incubation", "value": "greater than 90%"},
      {"measurement": "viability in the DEP buffer", "setting": "D54 cells [1]; 5 μM ROCKi in DEP buffer", "value": "improved viability"},
      {"measurement": "best concentration for D54 cell viability", "setting": "D54 cells [1]; ROCKi in DEP buffer at 1-10 μM", "value": 5, "unit": "µM"},
      {"measurement": "confluency of adherent cells 1 day after plating", "setting": "D54 cells [2]", "value": "the most confluency"},
      {"measurement": "cell numbers after plating and growth for 2 days (XTT)", "setting": "D54 cells [3]", "value": "significantly increased cell numbers"},
      {"measurement": "TMZ resistance (fold change in TMZ IC50)", "setting": "D54 cells [4]", "value": "did not alter TMZ resistance"}
    ]}
  ]
}
